Assay results taken from patent publication US20160158231A1, “PYRIMIDINE HYDROXY AMIDE COMPOUNDS FOR TREATING PERIPHERAL NEUROPATHY” (VIB VZW, priority 2014, published 2016).
Entries after “also recorded” stand apart in the source; their conditions may differ.

Experiments:
[1] = tested on: taxol-induced neuropathic pain model in rats; assay: Taxol-induced neuropathic pain model in rats (Von Frey test); type: in vivo, rat
Experimental: A study was conducted to extend the previous findings in the vincristine model to a different model of chemotherapy-induced neuropathy, the taxol-induced neuropathic pain model in rats.
Neuropathic pain is induced by a 0.5 ml/kg injection of taxol (2 mg/kg) administered IP on days 0-12. The development of neuropathic pain is confirmed by measuring mechanical allodynia (Von Frey test) on study day 13 as described above.
Pain was assessed using Von-Frey (VF) test for tactile allodynia on study days 13-15. The Rotarod Test was used to assess motor/coordination function.
Neuropathic pain was induced by a 0.5 ml/kg injection of taxol (2 mg/kg) administered IP on study days 0-12. The development of neuropathic pain was confirmed by measuring mechanical allodynia (Von Frey test) on study day 13.

[2] = tested on: vincristine-induced neuropathic pain model in rats; assay: Vincristine-induced neuropathic pain model in rats (Von Frey test); type: in vivo, rat
Experimental: Neuropathic pain is induced by injecting 5 ml/kg Vincristine (50 μg/kg) administered daily IP for a period of 12 days. The development of neuropathic pain is confirmed by measuring of mechanical allodynia (Von Frey test) on study day 13.
Allodynic response to tactile stimulation is assessed using the Von Frey apparatus (Touch Test®).
The rat will be placed in an enclosure and positioned on a metal mesh surface, but allowed to move freely. The rats' cabins are covered with red cellophane to diminish environmental disturbances. The test begins after a cessation of exploratory behavior. The set of Von Frey monofilaments provide an approximate logarithmic scale of actual force and a linear scale of perceived intensity.
The operating principle: when the tip of a fiber of given length and diameter is pressed against the skin at right angles, the force of application increases as long as the researcher continues to advance the probe until the fiber bends. After the fiber bends, the probe continues to advance, causing the fiber to bend more, but without additional force being applied. […] The Touch Test™ Sensory Evaluator can be used on the plantar surfaces of the rat's foot. The animal indicates sensation by pulling back its paw. The minimal force needed to elevate the withdrawal reflex is considered/designated as the value of reference. In order to achieve paw withdrawal, the pressure applied is sometimes greater than 60 g, often requiring the researcher to apply enough pressure with the Von Frey filament to actually lift the paw of the naive animal. Decreases in force needed to induce withdrawal are indicative of allodynia, as the force applied is a non-painful stimulus under normal conditions.

[3] = tested on: HDAC6 (acetylated α-tubulin) in Neuro2a cells; assay: Acetylated α-tubulin in Neuro2a cells (Western blot, staining): potency to inhibit HDAC6; conditions: for acetylated α-tubulin levels on Western blot / acetylated α-tubulin, staining of treated cells: 1 μM; for acetylated α-tubulin levels on Western blot: compared to DMSO; for acetylated α-tubulin, staining of treated cells: immunofluorescent staining; for relative potency to increase acetylated α-tubulin (dose-response): Western blot, different concentrations
[4] = Mouse pharmacokinetic studies (plasma and brain); type: in vivo; conditions: male, C57BL/6, mouse, iv, 1 mg/kg, read-out: Mouse brain to plasma ratio
Experimental: Male C57BL/6 mice were fasted overnight. Compounds A and B were dissolved in dimethyl acetamide at 10 times the final concentration, then Solutol HS 15 (BASF) was added to a final concentration of 10%. Finally 80% saline was added and vortexed to achieve a clear solution. Fifteen animals were injected via the tail vein with 1 mg/kg compound. Blood was collected by retro-orbital bleed at 5 minutes, 15 minutes, 30 minutes, 1 hour, 2 hours, 4 hours, 8 hours and 24 hours after dosing. At 5 minutes, 30 minutes, 1 hour and 4 hours after dosing three animals per time point were sacrificed and brains were removed. The blood was centrifuged at 2000 g for 5 minutes at 4° C. to obtain plasma. Brain samples were homogenized in PBS. The plasma and brain homogenate were extracted with acetonitrile and the level of compound was analyzed by LC/MS/MS. The level of compound in plasma was calculated from a standard curve in rat plasma and the level in brain was calculated from a standard curve in brain homogenate. The area under the curve in plasma and brain were calculated using WinNonLin software. The brain to plasma ratio was determined using the area under the curve values for the two compartments.

[5] = tested on: acetylated histone 3 (H3) in Neuro2a cells; assay: Acetylation status of histone 3 in Neuro2a cells: selectivity; type: cell-based, mouse; conditions: 1 μM; for acetylation of H3 on Western blot: ratio acetylated H3/H4 normalized to DMSO
[6] = Rat pharmacokinetic studies; type: in vivo; conditions: plasma, male SD rats, IV 1 mg/kg
Experimental: Male SD rats were fasted overnight. Compounds A and B were dissolved in dimethyl acetamide at 10 times the final concentration, then Solutol HS 15 (BASF) was added to a final concentration of 10%. Finally 80% saline was added and vortexed to achieve a clear solution. For the IV dosing three animals were injected via the foot dorsal vein with 1 mg/kg compound. For the PO dosing 5 mg/kg of compound was delivered by oral gavage. Blood was collected via the tail vein into K2EDTA tubes at 5 minutes, 15 minutes, 30 minutes, 1 hour, 2 hours, 4 hours, 8 hours and 24 hours after dosing. The blood was centrifuged at 2000 g for 5 minutes at 4° C. to obtain plasma. The plasma was extracted with acetonitrile and the level of compound was analyzed by LC/MS/MS. The level of compound in plasma was calculated from a standard curve in rat plasma. The IV clearance and area under the curve were calculated using WinNonLin software. The dose adjusted area under the curve for the IV and oral dosing were used to calculate the oral bioavailability.

[7] = tested on: HSPB1^S135F DRG neurons; assay: Axonal transport of mitochondria in DRG neurons cultured from HSPB1 S135F mice; type: cell-based, mouse; conditions: 2.5 μM; for amount of stationary mitochondria / number of moving mitochondria in the neurites / number of total mitochondria in the neurites: vs DMSO
From the text: Both compounds were able to increase the number of moving mitochondria in the neurites of HSPB1^S135F DRG neurons (FIGS. 4A and 4D).

[8] = tested on: C57B16/J mice, vincristine-induced sensory neuropathy; type: in vivo, mouse
Experimental: To study whether treatment with vincristine in vivo could induce a peripheral neuropathy, C57B16/J mice were injected intraperitoneally with vincristine on a daily basis. First, the animals were injected with different doses of vincristine. As sensory rather than motor problems are more pronounced in vincristine associated neuropathy patients, the Sensory Nerve Action Potentials (SNAPs) of the dorsal caudal tail nerve were first evaluated (FIG. 6A).
These animals were co-treated with vincristine and a selective HDAC6-inhibitor (Tubastatin A) to study the therapeutic potential of HDAC6-inhibition. […] A motor phenotype in our mice after vincristine treatment was not detected (results not shown).

[9] = tested on: mutant HSPB1^S135F mice; conditions: d'Ydewalle et al., 2011; cited from earlier work
[10] = tested on: mutant HSPB1^S135F mice; assay: Motor and sensory deficits of mutant HSPB1 S135F mice (CMT2 model); type: in vivo, mouse; conditions: 3 mg/kg, daily IP injection, symptomatic animals
From the text: From the age of 6 months on, mutant HSPB1^S135F mice display motor and sensory deficits (d'Ydewalle et al., 2011). […] A positive trend for all the compounds tested was observed.

[11] = tested on: HSPB1^S135F DRG neurons; conditions: d'Ydewalle et al., 2011; cited from earlier work

Compound | acetylated α-tubulin levels on Western blot [3] | acetylated α-tubulin, staining of treated cells [3] | Kp [4] | acetylation of H3 on Western blot [5] | clearance [6] [mL/min/kg] | levels of acetylated α-tubulin in the neurites (staining) [7] | amount of stationary mitochondria [7] | number of moving mitochondria in the neurites [7] | number of total mitochondria in the neurites [7] | restoration of motor and sensory defects [9] | relative potency to increase acetylated α-tubulin (dose-response) [3] | amplitude of the compound muscle action potential (CMAP) [10] | also measured
O=C(NO)c1cnc(NC2(c3ccccc3)CC2)nc1 [Compound A, N-hydroxy-2-((1-phenylcyclopropyl)amino)pyrimidine-5-carboxamide] | significant increase | increased levels | 1.23 | do not change | 100 | increased | remains unchanged | increase | increase | – | – | – | Von Frey withdrawal force ([1]; 3 mg/kg PO b.i.d., 2 hours post dosing, study day 15, vehicle 13.21±1.49 g): 53.20 ± 2.78 g; Von Frey withdrawal force ([1]; 10 mg/kg PO b.i.d., study day 13 post dosing, vehicle 15.33±2.13 g): 53.11 ± 4.77 g; reversing pain (conclusion) ([1]; doses of 3 mg/kg and 10 mg/kg): active in reversing pain; increasing the withdrawal force (Von Frey) ([2]; 3 mg/kg PO b.i.d.): not active; animals waking ability ([2]; 3 mg/kg and 10 mg/kg PO starting from study day 7): trend of improvement; Von Frey withdrawal force ([2]; 10 mg/kg PO b.i.d., study day 13, vehicle 9.45±0.66 g, ns): 11.00 ± 1.07 g; Von Frey withdrawal force ([2]; 10 mg/kg PO b.i.d., study day 15, vehicle 14.50±1.51 g, p<0.05): 33.85 ± 6.96 g; Von Frey force ([2]; 10 mg/kg, study days 14-15): significantly decreased; sensory neuropathy induced by vincristine (SNAP) ([8]; 25 mg/kg/day intraperitoneal, one week, co-treatment with vincristine): seems to reduce the sensory neuropathy
NCC1(CC(=O)O)CCCCC1 [Gabapentin, reference compound] | – | – | – | – | – | – | – | – | – | – | – | – | Von Frey withdrawal force ([1]; 150 mg/kg IP, 2 hours post dosing, study day 15, vehicle 13.21±1.49 g): 54.90 ± 3.63 g; Von Frey withdrawal force ([2]; 150 mg/kg IP, study day 15, vehicle 14.50±1.51 g): 43.95 ± 5.00 g
CC[C@]1(O)C[C@H]2CN(CCc3c([nH]c4ccccc34)[C@@](C(=O)OC)(c3cc4c(cc3OC)N(C=O)[C@H]3[C@@](O)(C(=O)OC)[C@H](OC(C)=O)[C@]5(CC)C=CCN6CC[C@]43[C@@H]65)C2)C1 [vincristine] | – | – | – | – | – | – | – | – | – | – | – | – | reduction in SNAP amplitude compared to vehicle treated mice ([8]; C57B16/J, mouse, in vivo, ip, 7 days): 35.4%; motor phenotype ([8]; mouse, in vivo): not detected; SNAP latencies ([8]; mouse, in vivo, ip): unaffected
CC(/C=C/C(=O)NO)=C\[C@@H](C)C(=O)c1ccc(N(C)C)cc1 [TSA, Trichostatin A, reference compound] | – | increased levels | – | increases | – | – | – | – | – | can be restored | more potent | – | acetylated H3 in nuclei, staining of treated cells ([5]; immunofluorescent staining): more acetylated H3
O=C(NO)c1cnc(NC2(c3cccc(F)c3)CCCCC2)nc1 [Compound B, 2-((1-(3-fluorophenyl)cyclohexyl)amino)-N-hydroxypyrimidine-5-carboxamide] | significant increase | increased levels | 1.28 | do not change | 38.3 | increased | remains unchanged | increase | increase | – | more potent | statistical significant rescue; also recorded: can restore | –
CN1CCc2c(c3ccccc3n2Cc2ccc(C(=O)NO)cc2)C1 [Tubastatin A] | – | – | – | – | – | – | – | – | – | can be restored | – | can restore | rescue of the axonal transport defect of mitochondria [11]: could be rescued
